Article PMC8036666, “Biological and Physico-Chemical Characteristics of Arginine-Rich Peptide Gemini Surfactants with Lysine and Cystine Spacers” (International Journal of Molecular Sciences, 2021)
Values after ≈ are worked out from the molar mass of the structure shown. Like-named read-outs stand apart in the source and are kept apart here. Where a SMILES comes first, the peptide text is derived from it. Bridges are numbered along the chain shown (N, C = ends). Roman numbers before positions name the chains, in order. Side-chain parts run from the residue outwards. [ ]: non-standard residue; d: D form. The star is where a group is joined. Myristoyl = CCCCCCCCCCCCCC(=O)*; Lauroyl = CCCCCCCCCCCC(=O)*; Nle = CCCC[C@H](N)C(=O)O; Octanoyl = CCCCCCCC(=O)*

Tests used:
[1] = system: Klebsiella aerogenes ATCC 13048; format: cell-based; conditions: ATCC 13048, 24 h
Description: (§1) Biofilm is associated with life-threating infections due to its outstanding resistance to antibiotics. In this study, the antibiofilm characteristics of USCLs and gemini surfactants were evaluated.
(§2) The MBECs were determined as described previously using 96-well polystyrene flat-bottom plates. For this purpose, 24 h cultures of microorganisms were diluted to obtain a final density of 5.0 × 10^5 CFU/mL and 2.0 × 10^5 CFU/mL of bacteria and fungi, respectively. Microorganisms were diluted in MHB or RPMI-1640 with 2% D-glucose (bacteria and fungi, respectively). Briefly, 100 µL of cell suspension was added into the test plates. After 24 h of incubation at 37 °C, the wells were rinsed three times with a PBS (pH 7.4) to remove non-adherent cells. Subsequently, 100 μL of the test compounds in a concentration range (1–512 μg/mL) were added to each well. After 24 h of incubation at 37 °C, 20 μL of a cell viability reagent was added (resazurin, 4 g/L; Sigma Aldrich, St. Louis, MO, USA). The MBEC was read after 1 h. The determined values were recorded as the lowest concentration at which the reduction of resazurin (from blue to pink) was lower or equal to 10 ± 0.5% as compared to the positive (100%) and negative (0%) controls. The reduction was monitored by measuring absorbance at 570 nm (reduced) and 600 nm (oxidized) using a microplate spectrophotometer (Multiskan GO Microplate Spectrophotometer, Thermo Fisher Scientific, Vantaa, Finland). All experiments were conducted in triplicate.

[2] = system: Acinetobacter baumannii ATCC BAA 1605; format: cell-based; conditions: ATCC BAA 1605, 24 h
Description: as §1, §2

[3] = system: Klebsiella pneumoniae ATCC 700603; format: cell-based; conditions: ATCC 700603, 24 h
Description: as §1, §2

[4] = system: Pseudomonas aeruginosa ATCC 9027; format: cell-based; conditions: ATCC 9027, 24 h
Description: as §1, §2

[5] = system: Enterococcus faecium ATCC 700221; format: cell-based; conditions: ATCC 700221, 24 h
Description: as §1, §2

[6] = system: Staphylococcus aureus ATCC 33591; format: cell-based; conditions: ATCC 33591, 24 h
Description: as §1, §2

[7] = system: Candida albicans ATCC 10231; format: cell-based; conditions: ATCC 10231, 24 h
Description: as §1, §2

[8] = system: Candida glabrata ATCC 15126; format: cell-based; conditions: ATCC 15126, 24 h
Description: as §1, §2

[9] = system: Staphylococcus aureus ATCC 25923; format: cell-based; conditions: ATCC 25923, 24 h
Description: as §1, §2

[10] = system: Klebsiella aerogenes ATCC 13048; conditions: ATCC 13048, 24 h
Description: (§3) The Acinetobacter baumannii ATCC BAA-1605, Enterococcus faecium ATCC 700221, Escherichia coli ML-35 ATCC 43827, Klebsiella aerogenes ATCC 13048, Klebsiella pneumoniae ATCC 700603, Pseudomonas aeruginosa ATCC 9027, Staphylococcus aureus ATCC 25923, Staphylococcus aureus ATCC 33591, Candida albicans ATCC 10231, Candida glabrata ATCC 15126, strains were acquired from the American Type Culture Collection (ATCC). All the strains were stored at −80 °C in Roti-Store cryo vials and before the tests were transferred into fresh Mueller–Hinton broth (MHB, Biocorp, Warsaw, Poland) for bacteria or RPMI-1640 (Sigma-Aldrich, Steinheim, Germany) for fungi and incubated for 24 h at 37 °C. Then, the cultures were seeded on the Mueller–Hinton agar (BioMaxima, Lublin, Poland) or Sabouraud dextrose agar (SDA, BioMaxima, Lublin, Poland) plates, respectively, and incubated as just mentioned. These agar cultures were used for further microbiological assays. Cell densities for all assays were adjusted spectrophotometrically (Multiskan GO Microplate Spectrophotometer, Thermo Fisher Scientific, Vantaa, Finland) at 600 and 530 nm for bacteria and fungi, respectively.
(§4) The MICs were determined by the broth microdilution method according to the Clinical and Laboratory Standard Institute guidelines. […] The experiments were conducted on 96-well microtiter polystyrene plates (Kartell, Noviglio, Italy). The growth was assessed visually after incubation, and the MIC was assumed as the lowest peptide concentration at which a noticeable growth of microorganisms was inhibited. All experiments were conducted in triplicate.

[11] = system: Acinetobacter baumannii ATCC BAA 1605; conditions: ATCC BAA 1605, 24 h
Description: as §3, §4

[12] = system: Klebsiella pneumoniae ATCC 700603
Description: as §3, §4

[13] = system: Pseudomonas aeruginosa ATCC 9027; conditions: ATCC 9027, 24 h
Description: as §3, §4

[14] = system: Enterococcus faecium ATCC 700221; conditions: ATCC 700221, 24 h
Description: as §3, §4

[15] = system: Staphylococcus aureus ATCC 25923; conditions: ATCC 25923, 24 h
Description: as §3, §4

[16] = Lipopeptide hydrophobicity by RP-HPLC (adjusted retention time); format: physicochemical; conditions: for Adjusted Retention Time: RP-HPLC, 20–65% acetonitrile over 30 min, indicator of hydrophobicity
Description: The identity of the purified peptides was confirmed with electrospray ionization mass spectrometry (ESI-MS) in positive ion mode. Results of MS analyses and net charge are attached in Supplementary Materials (Table S1). Peptides’ hydrophobicity was evaluated by analytical reversed-phase high-performance liquid chromatography (RP-HPLC). The critical aggregation concentrations (CACs) of the lipopeptides were determined in unbuffered aqueous solution at 298 K by measuring the surface tension as a function of lipopeptide concentration. The measurements were carried out by the Du Noüy ring method on a K100 tensiometer. The surface tension data were plotted against the logarithm of lipopeptide concentration. CAC was found as the intersection of two lines being linear regression of data below and above CAC.
Lipopeptide hydrophobicity was determined as described previously. To do this, a Waters Alliance e2695 system with a Waters 2998 PDA Detector (software-Empower 3, Waters, Milford, MA, USA) was used. All analyses were carried out on a Waters X-Bridge Shield RP-18 column (3.0 × 100 mm, 3.5 μm particle size, 130 Å pore size). The Shield Technology column with embedded polar groups was used to minimize interactions of unreacted silanol groups with basic lipopeptides. The peptides were dissolved in water (0.1% TFA, v/v) up to a concentration of 1 mg/mL. UV detection at 214 nm was used, and samples (10 μL) were eluted with a linear 20–65% acetonitrile gradient in deionized water over 30 min at 25.0 ± 0.1 °C. The mobile phase flow rate was 0.5 mL/min. Both eluents contained 0.1% (v/v) of TFA. Each peptide sample was analyzed in triplicate. The maximum standard deviation and coefficient of variation were 0.044 and 0.85%, respectively.

SMILES	MBEC Klebsiella aerogenes ATCC 13048 [1]	MBEC Acinetobacter baumannii ATCC BAA 1605 [2]	MBEC Klebsiella pneumoniae ATCC 700603 [3]	MBEC Pseudomonas aeruginosa ATCC 9027 [4]	MBEC Enterococcus faecium ATCC 700221 [5]	MBEC Staphylococcus aureus ATCC 33591 [6]	MBEC Candida albicans ATCC 10231 [7]	MBEC Candida glabrata ATCC 15126 [8]	MBEC Staphylococcus aureus ATCC 25923 [9]	MIC Klebsiella aerogenes ATCC 13048 [10]	MIC Acinetobacter baumannii ATCC BAA 1605 [11]	MIC Klebsiella pneumoniae ATCC 700603 ([12]; ATCC 700603, 24 h)	MIC Pseudomonas aeruginosa ATCC 9027 [13]	MIC Enterococcus faecium ATCC 700221 [14]	MIC Staphylococcus aureus ATCC 25923 [15]	Adjusted Retention Time [16]	MIC Klebsiella pneumoniae ATCC 700603 ([12]; planktonic culture)	Difference in retention time calculated as tR’C—tR’B ([16]; between corresponding surfactants of series C and B)
CCCCCCCCCCCCCC(=O)N[C@@H](CCCNC(=N)N)C(=O)N[C@@H](CCCNC(=N)N)C(N)=O [Compound A4, C14-RR-NH2] (Myristoyl-Arg-Arg-NH2)	256 µg/mL	256 µg/mL	256 µg/mL	512 µg/mL	8 µg/mL	8 µg/mL	64 µg/mL	256 µg/mL	16 µg/mL	256 (−/−) µg/mL	64 µg/mL (≈ 119 µM)	256 (−/−) µg/mL	32 µg/mL (≈ 59.3 µM)	8 µg/mL (≈ 14.8 µM)	8 µg/mL (≈ 14.8 µM)	16.31 min	–	–
CCCCCCCC(=O)N[C@@H](CCCNC(=N)N)C(=O)N[C@@H](CCCNC(=N)N)C(=O)NCCCC[C@H](NC(=O)[C@H](CCCNC(=N)N)NC(=O)[C@H](CCCNC(=N)N)NC(=O)CCCCCCC)C(N)=O [Compound B1] (Octanoyl-Arg-Arg-Lys([Arg-Arg-Octanoyl])-NH2)	>512 µg/mL	512 µg/mL	>512 µg/mL	512 µg/mL	128 µg/mL	32 µg/mL	256 µg/mL	>512 µg/mL	32 µg/mL	>256 (−/−) µg/mL	256 (−/−) µg/mL	>256 (−/−) µg/mL	32 µg/mL (≈ 31.3 µM)	64 µg/mL (≈ 62.6 µM)	4 µg/mL (≈ 3.91 µM)	8.11 min	–	–
CCCCCCCC(=O)N[C@@H](CCCC)C(=O)N[C@@H](CCCNC(=N)N)C(=O)N[C@@H](CCCNC(=N)N)C(=O)N[C@@H](CSSC[C@H](NC(=O)[C@H](CCCNC(=N)N)NC(=O)[C@H](CCCNC(=N)N)NC(=O)[C@H](CCCC)NC(=O)CCCCCCC)C(N)=O)C(N)=O [Compound C6] (I: Octanoyl-[Nle]RRC-NH2 / II: Octanoyl-[Nle]RRC-NH2; disulfide I:4-II:4)	256 µg/mL	512 µg/mL	256 µg/mL	512 µg/mL	8 µg/mL	8 µg/mL	256 µg/mL	512 µg/mL	32 µg/mL	256 (−/−) µg/mL	32 µg/mL (≈ 23.8 µM)	–	8 µg/mL (≈ 5.96 µM)	2 µg/mL (≈ 1.49 µM)	2 µg/mL (≈ 1.49 µM)	14.29 min	64 µg/mL (≈ 47.7 µM)	0.33 min
CCCCCCCC(=O)N[C@@H](Cc1ccccc1)C(=O)N[C@@H](CCCNC(=N)N)C(=O)N[C@@H](CCCNC(=N)N)C(=O)NCCCC[C@H](NC(=O)[C@H](CCCNC(=N)N)NC(=O)[C@H](CCCNC(=N)N)NC(=O)[C@H](Cc1ccccc1)NC(=O)CCCCCCC)C(N)=O [Compound B5] (Octanoyl-FRRK([Arg-Arg-Phe-Octanoyl])-NH2)	256 µg/mL	256 µg/mL	256 µg/mL	512 µg/mL	8 µg/mL	4 µg/mL	32 µg/mL	256 µg/mL	16 µg/mL	256 (−/−) µg/mL	32 µg/mL (≈ 24.3 µM)	128 µg/mL (≈ 97.2 µM)	8 µg/mL (≈ 6.08 µM)	4 µg/mL (≈ 3.04 µM)	2 µg/mL (≈ 1.52 µM)	15.19 min	–	–
CCCCCCCCCCCC(=O)N[C@@H](CCCNC(=N)N)C(=O)N[C@@H](CCCNC(=N)N)C(N)=O [Compound A3, C12-RR-NH2] (Lauroyl-Arg-Arg-NH2)	512 µg/mL	512 µg/mL	512 µg/mL	512 µg/mL	32 µg/mL	64 µg/mL	128 µg/mL	512 µg/mL	64 µg/mL	>256 (−/−) µg/mL	256 (−/−) µg/mL	>256 (−/−) µg/mL	128 µg/mL (≈ 250 µM)	32 µg/mL (≈ 62.5 µM)	32 µg/mL (≈ 62.5 µM)	12.15 min	–	–
